Consider 20 molecules from ChEMBL document CHEMBL4725449, “Brain Penetrable Inhibitors of Ceramide Galactosyltransferase for the Treatment of Lysosomal Storage Disorders” (ACS Med Chem Lett, 2020).

pIC50: −log10 of the molar value. ≈ marks a conversion by molar mass, not a printed value. Bounds are passed on as bounds.

Data set [1] in a line: Apparent permeability of the compound at pH 6.5 to 7.4 by PAMPA. It counts as ADME.
Data set [2] in a line: Ratio of drug concentration in brain to plasma in C57BL/6 mouse measured at 5 mins. It counts as ADME, organism-based. The following applies: read-out: BPR.
Data set [3] can be described thus: Ratio of drug concentration in brain to plasma in C57BL/6 mouse measured at 1 hr. It counts as ADME, organism-based. The following applies: read-out: BPR.
Data set [4] concerns the target T1, 2-hydroxyacylsphingosine 1-beta-galactosyltransferase (Homo sapiens, UniProt Q16880).
T1 sequence (Q16880 whole entry): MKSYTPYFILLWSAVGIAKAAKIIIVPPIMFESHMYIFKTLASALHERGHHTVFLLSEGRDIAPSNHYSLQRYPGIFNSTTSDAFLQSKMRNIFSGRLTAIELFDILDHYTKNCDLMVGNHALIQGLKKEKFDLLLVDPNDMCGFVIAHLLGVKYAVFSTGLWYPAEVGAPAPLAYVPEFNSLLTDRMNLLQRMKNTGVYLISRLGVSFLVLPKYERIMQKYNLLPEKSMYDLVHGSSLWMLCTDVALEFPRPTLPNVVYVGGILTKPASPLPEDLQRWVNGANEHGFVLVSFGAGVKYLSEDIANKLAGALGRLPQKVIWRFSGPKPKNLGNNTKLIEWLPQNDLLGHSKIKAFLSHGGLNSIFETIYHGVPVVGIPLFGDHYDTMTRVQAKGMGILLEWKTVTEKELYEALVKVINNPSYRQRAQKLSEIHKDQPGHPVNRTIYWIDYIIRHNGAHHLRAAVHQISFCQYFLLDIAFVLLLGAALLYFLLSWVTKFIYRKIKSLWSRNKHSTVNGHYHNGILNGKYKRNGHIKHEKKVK
Briefly: Inhibition of UGT8 in human OE19 cells assessed as redcution in GalCer accumulation measured after 72 hrs by LC-MS/MS analysis. It counts as cell-based.

Data set [5] can be described thus: Intrinsic clearance in human liver microsomes. Conditions: read-out: CLH. It counts as ADME, Microsome. For orientation: Liver microsomes are vesicles of endoplasmic reticulum, rich in cytochrome P450 enzymes.
The nature of data set [6]: Drug uptake in C57BL/6 mouse brain at 3 mg/kg, iv measured at 1 hr. It counts as ADME, organism-based. Conditions: read-out: Drug uptake.
In data set [7] the target is T1, 2-hydroxyacylsphingosine 1-beta-galactosyltransferase. Put plainly: Inhibition of UGT8 in human OE19 cells assessed as redcution in SFT accumulation measured after 72 hrs by LC-MS/MS analysis. It counts as cell-based.
The nature of data set [8]: Drug uptake in C57BL/6 mouse brain at 3 mg/kg, iv measured at 5 mins. It counts as ADME, organism-based. Conditions: read-out: Drug uptake.
Data set [9] is described as follows: Distribution coefficient, log D of the compound. It counts as physicochemical. The following applies: octanol/water.
A short description of data set [10]: Thermodynamic solubility of the compound […] at pH 7.4. Conditions: read-out: Therm_solubility. It counts as physicochemical.

A word on the Papp: it is the rate of passage across a membrane or cell layer, normalised by area and donor concentration. What is called pIC50 is the IC50 on a negative log10 scale, so that one unit is a factor of ten. Broadly, the logD is the decadic logarithm of the distribution of all forms, ionised or not, between an organic phase and buffer at a given pH. A low value points to lower lipophilicity. For `CNC(=O)c1csc2c(C(F)(F)F)cc(N3CCN(C(=O)COC(C)C)CC3)nc12`, the Papp in data set [1] is 69 ×10⁻⁶ cm/s. Also, the Kp at 5 min in data set [2] is 0.07. Also, the Kp at 1 h in data set [3] was found to be 0.06. In addition, the pIC50 in [4] is 6.35; in data set [7] it was 6.18. Also, the microsomal CLint in data set [5] is 42 µL/min/mg. Also, in [6], the concentration at 1 h was 8 ng/mL. Moreover, the concentration at 5 min in [8] was 228 ng/mL. The molecule further displayed a logD in data set [9] of 3.1.
As for `CNC(=O)c1csc2c(C(F)(F)F)cc(N3CCC(OC(=O)NCC4CC4)CC3)nc12`, in data set [1], the Papp was greater than 80 ×10⁻⁶ cm/s. Besides, the Kp at 5 min in [2] was found to be 0.91. The Kp at 1 h in data set [3] was determined as 0.31. Also, the values for the negative-log IC50 (pIC50) in data set [4] and in data set [7] were 8.52 and 9.00, respectively. Besides, the microsomal CLint in data set [5] was found to be 59 µL/min/mg. Besides, the concentration at 1 h in data set [6] worked out at 132 ng/mL. The concentration at 5 min in data set [8] came out at 2140 ng/mL. The molecule further came in with a logD in data set [9] of 4.2.
Turning to `CNC(=O)c1csc2c(C(F)(F)F)cc(N3CC(OC(=O)NCC4CC4)C3)nc12`, the pIC50 in data set [7] was 6.70.
Regarding `CNC(=O)c1csc2c(C(F)(F)F)cc(N3CCC(NC(=O)OCC4CC4)CC3)nc12`, the pIC50 is 7.43 in data set [4] and 7.74 in data set [7].
With `CNC(=O)c1csc2c(C(F)(F)F)cc(N3CCC(OC(=O)NCC4CC4)C3)nc12` (stereo not drawn), the negative logarithm of the IC50 (pIC50) in data set [7] is 6.21.
As to `CNC(=O)c1csc2c(C(F)(F)F)cc(N3CCN(C(C)C(=O)NC4CC4)CC3)nc12` (stereo not drawn), the Papp in [1] was 75 ×10⁻⁶ cm/s. Besides, the Kp at 5 min in data set [2] amounted to 0.01. For the same molecule, the values for the pIC50 in data set [4] and in [7] were 6.44 and 6.77, respectively. The microsomal CLint in data set [5] was determined as 34 µL/min/mg. For the same molecule, the concentration at 5 min in [8] came out at 43 ng/mL. Also, in data set [9], the logD amounted to 3.3.
Turning to `CNC(=O)c1csc2c(C(F)(F)F)cc(N3CCC(OC(=O)N4CC(CN(C)C)C4)CC3)nc12`, the solubility thermodynamic in data set [10] amounted to 420 µM (≈ 210 µg/mL). In addition, the negative-log IC50 (pIC50) in data set [7] was 6.01.
With `CNC(=O)c1csc2c(C(F)(F)F)cc(N3CCC(OC(=O)NCCOC(F)(F)F)CC3)nc12`, the solubility thermodynamic in [10] is less than 0.5 µM. Moreover, the Kp at 5 min in data set [2] stood at 0.59. In data set [3], the Kp at 1 h amounted to 0.24. Also, the negative logarithm of the IC50 (pIC50) in data set [4] is 9.22; in data set [7], 9.40. In addition, the concentration at 1 h in data set [6] turned out to be 128 ng/mL. Besides, the concentration at 5 min in data set [8] is 1640 ng/mL. Also, the logD in data set [9] turned out to be 4.7.
As to `CNC(=O)c1csc2c(C(F)(F)F)cc(N3CCN(CC(O)COC(C)(C)C)CC3)nc12` (stereo not drawn), in data set [1], the apparent permeability coefficient (Papp) was 78 ×10⁻⁶ cm/s. Further, in data set [2], the Kp at 5 min is 0.93. Further, the Kp at 1 h in data set [3] came out at 0.35. Besides, the results for the negative-log IC50 (pIC50) in [4] and in data set [7] were 6.46 and 6.72, respectively. Further, the microsomal CLint in [5] worked out at 51 µL/min/mg. Also, the concentration at 1 h in data set [6] amounted to 210 ng/mL. Also, the concentration at 5 min in data set [8] is 1700 ng/mL. This molecule also yielded a logD in [9] of 3.7.
For `CNC(=O)c1csc2c(C(F)(F)F)cc(N3CCC(OC(=O)NC(C)C)CC3)nc12`, the apparent permeability (Papp) in [1] was greater than 80 ×10⁻⁶ cm/s. Moreover, the Kp at 5 min in data set [2] was determined as 1.88. The Kp at 1 h in data set [3] was found to be 1.03. Further, the negative-log IC50 (pIC50) in data set [4] and in data set [7] was 8.70 in each case. Moreover, in [5], the microsomal CLint worked out at 46 µL/min/mg. Moreover, the concentration at 1 h in data set [6] was 302 ng/mL. The concentration at 5 min in data set [8] is 2700 ng/mL. The molecule also showed a pH-dependent lipophilicity (logD) in data set [9] of 4.35.
For `CC[C@H](C)NC(=O)OC1CCN(c2cc(C(F)(F)F)c3scc(C(=O)NC)c3n2)CC1`, the solubility thermodynamic in data set [10] was less than 0.5 µM. In data set [2], the Kp at 5 min came to 1.45. In addition, the Kp at 1 h in [3] is 0.76. Further, the pIC50 in [4] was 9.40; in data set [7], 9.05. The concentration at 1 h in data set [6] came out at 192 ng/mL. The concentration at 5 min in data set [8] came out at 2370 ng/mL. Besides, the log distribution coefficient (logD) in data set [9] is 4.56.
`CNC(=O)c1csc2c(C(F)(F)F)cc(N3CC(NC(=O)OCC4CC4)C3)nc12`: the pIC50 in [4] was 7.37; in [7], 7.32.
Turning to `CC(C)NC(=O)CN1CCN(c2cc(C(F)(F)F)c3scc(C(=O)N4CCC4)c3n2)CC1`, the apparent permeability coefficient (Papp) in data set [1] was 66 ×10⁻⁶ cm/s. In addition, the figures for the pIC50 in data set [4] and in data set [7] were 6.49 and 6.19, respectively. The microsomal CLint in data set [5] amounted to 27 µL/min/mg. The logD in data set [9] was found to be 2.7.
As to `CNC(=O)c1csc2c(C(F)(F)F)cc(N3CCC(OC(=O)NCCN4CCCC4)CC3)nc12`, the solubility thermodynamic in data set [10] amounted to 430 µM (≈ 215 µg/mL). Further, the negative logarithm of the IC50 (pIC50) in [7] is 6.29.
With `CNC(=O)c1csc2c(C(F)(F)F)cc(N3CCN(CC(=O)NC(C)C)CC3)nc12`, the results for the pIC50 in data set [4] and in data set [7] were 7.05 and 7.17, respectively.
Consider `CNC(=O)c1csc2c(C(F)(F)F)cc(N3CCC(OC(=O)N[C@@H](C)C4CC4)CC3)nc12`, for which, in data set [1], the Papp is greater than 80 ×10⁻⁶ cm/s. Moreover, the solubility thermodynamic in data set [10] was less than 0.5 µM. Further, the Kp at 5 min in data set [2] came out at 0.76. The Kp at 1 h in data set [3] amounted to 0.42. In addition, the negative logarithm of the IC50 (pIC50) was 8.96 in data set [4] and 9.05 in data set [7]. Further, the microsomal CLint in data set [5] is 70 µL/min/mg. Further, the concentration at 1 h in [6] is 143 ng/mL. For the same molecule, the concentration at 5 min in data set [8] worked out at 1480 ng/mL. This molecule also gave a pH-dependent lipophilicity (logD) in data set [9] of 4.29.
In the case of `CNC(=O)c1csc2c(C(F)(F)F)cc(N3CCN(CC(=O)C(C)(C)C)CC3)nc12`, in data set [1], the apparent permeability (Papp) is greater than 80 ×10⁻⁶ cm/s. Further, the Kp at 5 min in [2] amounted to 0.81. Besides, the Kp at 1 h in data set [3] came out at 0.54. The pIC50 in data set [4] was 5.85; in data set [7], 6.21. The microsomal CLint in data set [5] is 5 µL/min/mg. The concentration at 1 h in data set [6] stood at 170 ng/mL. Moreover, in [8], the concentration at 5 min came to 1100 ng/mL. In data set [9], this molecule showed a logD of 3.3.
As to `CNC(=O)c1csc2c(C(F)(F)F)cc(N3CCC(OC(=O)N4CC(OC(F)(F)F)C4)CC3)nc12`, the Papp in data set [1] is greater than 80 ×10⁻⁶ cm/s. Besides, in data set [10], the solubility thermodynamic is less than 0.5 µM. Besides, the Kp at 5 min in [2] is 1.67. Moreover, the Kp at 1 h in [3] worked out at 0.59. Besides, the results for the pIC50 in data set [4] and in data set [7] were 8.54 and 8.77, respectively. Moreover, in [5], the microsomal CLint is 41 µL/min/mg. In data set [6], the concentration at 1 h turned out to be 316 ng/mL. For the same molecule, in data set [8], the concentration at 5 min was 3430 ng/mL. The same molecule returned a logD in data set [9] of 5.13.
Turning to `CCC(=O)c1csc2c(C(F)(F)F)cc(N3CCN(CC(=O)NC(C)C)CC3)nc12`, the Papp in data set [1] is greater than 80 ×10⁻⁶ cm/s. For the same molecule, in data set [2], the Kp at 5 min stood at 0.83. Moreover, in [3], the Kp at 1 h is 0.72. For the same molecule, the results for the pIC50 in data set [4] and in data set [7] were 6.92 and 7.01, respectively. The microsomal CLint in data set [5] was determined as 36 µL/min/mg. Also, in [6], the concentration at 1 h was 270 ng/mL. For the same molecule, in [8], the concentration at 5 min was 1400 ng/mL. For the same molecule, the log distribution coefficient (logD) in data set [9] was 3.6.
As for `CNC(=O)c1csc2c(C(F)(F)F)cc(N3CCN(CCOC(C)C)CC3)nc12`, in data set [1], the apparent permeability coefficient (Papp) was greater than 80 ×10⁻⁶ cm/s. Besides, the Kp at 5 min in data set [2] came to 1.8. Also, the Kp at 1 h in data set [3] amounted to 1. The pIC50 is 6.70 in [4] and 6.48 in [7]. Moreover, in data set [5], the microsomal CLint worked out at 96 µL/min/mg. The concentration at 1 h in data set [6] turned out to be 1700 ng/mL. The concentration at 5 min in data set [8] came out at 3000 ng/mL. The log distribution coefficient (logD) in data set [9] amounted to 3.6.
